For data set [1], the target named is T1, ATP-binding cassette sub-family C member 2 (Homo sapiens, UniProt Q92887). In words: TP_TRANSPORTER: inhibition of PAH uptake (PAH: 0.1uM) in membrane vesicles from MRP2-expressing HEK cells. In kind it is functional, cell membranes, HEK293, Membrane vesicle.
For data set [2], the target named is T1, ATP-binding cassette sub-family C member 2. Kind of data set: TP_TRANSPORTER: uptake in membrane vesicles from MRP2-expressing HEK cells. It counts as functional, cell membranes, Membrane vesicle. To be noted: hek293.

T1 sequence (Q92887 whole entry): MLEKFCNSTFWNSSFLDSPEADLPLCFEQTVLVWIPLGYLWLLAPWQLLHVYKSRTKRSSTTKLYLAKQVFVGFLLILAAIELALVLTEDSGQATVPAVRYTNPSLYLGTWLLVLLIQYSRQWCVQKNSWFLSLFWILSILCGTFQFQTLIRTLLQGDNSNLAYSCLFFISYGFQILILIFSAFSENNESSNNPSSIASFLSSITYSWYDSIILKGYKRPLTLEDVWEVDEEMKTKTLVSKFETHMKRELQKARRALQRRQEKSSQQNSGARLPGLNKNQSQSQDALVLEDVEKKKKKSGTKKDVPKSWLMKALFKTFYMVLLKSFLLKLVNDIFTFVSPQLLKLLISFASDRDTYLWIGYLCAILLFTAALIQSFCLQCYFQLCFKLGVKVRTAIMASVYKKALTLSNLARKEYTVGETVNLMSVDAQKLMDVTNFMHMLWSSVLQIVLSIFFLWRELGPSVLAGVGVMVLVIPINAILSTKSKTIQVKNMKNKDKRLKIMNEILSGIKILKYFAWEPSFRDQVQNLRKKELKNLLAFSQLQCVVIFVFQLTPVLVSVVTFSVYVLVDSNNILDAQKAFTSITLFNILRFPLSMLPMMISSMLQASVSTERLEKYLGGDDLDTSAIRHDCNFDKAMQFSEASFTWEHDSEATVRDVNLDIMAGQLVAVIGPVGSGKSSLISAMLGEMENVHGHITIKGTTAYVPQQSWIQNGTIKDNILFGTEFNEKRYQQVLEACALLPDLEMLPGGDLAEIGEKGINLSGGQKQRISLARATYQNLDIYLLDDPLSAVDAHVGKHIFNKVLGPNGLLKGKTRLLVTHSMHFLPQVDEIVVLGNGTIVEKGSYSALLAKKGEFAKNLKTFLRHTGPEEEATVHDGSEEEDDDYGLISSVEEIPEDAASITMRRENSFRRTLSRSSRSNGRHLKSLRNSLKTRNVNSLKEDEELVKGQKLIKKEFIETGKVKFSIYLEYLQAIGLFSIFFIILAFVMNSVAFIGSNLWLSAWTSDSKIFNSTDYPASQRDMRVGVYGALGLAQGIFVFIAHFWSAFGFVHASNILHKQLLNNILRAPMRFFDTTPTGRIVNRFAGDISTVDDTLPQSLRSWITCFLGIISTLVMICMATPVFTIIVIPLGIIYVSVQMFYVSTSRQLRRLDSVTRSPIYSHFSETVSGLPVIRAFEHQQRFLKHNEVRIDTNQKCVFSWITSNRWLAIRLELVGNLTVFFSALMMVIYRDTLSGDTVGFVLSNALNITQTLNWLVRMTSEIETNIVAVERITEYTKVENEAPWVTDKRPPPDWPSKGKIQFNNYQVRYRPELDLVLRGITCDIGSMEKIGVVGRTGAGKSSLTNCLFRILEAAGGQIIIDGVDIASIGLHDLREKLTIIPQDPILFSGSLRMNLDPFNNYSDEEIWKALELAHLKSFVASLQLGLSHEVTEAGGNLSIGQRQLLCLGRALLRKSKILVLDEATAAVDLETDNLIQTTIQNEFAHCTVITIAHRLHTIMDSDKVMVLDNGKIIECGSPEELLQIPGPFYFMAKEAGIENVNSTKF

For orientation: IC50 means the concentration that gives 50% inhibition. A high value points to weaker potency in that assay. `CN(C)C(=O)CCSC(SCCC(=O)O)c1cccc(/C=C/c2ccc3ccc(Cl)cc3n2)c1` (centres undefined) [MK-571] showed a half-maximal inhibitory concentration (IC50) in data set [1] of 4 µM.

The molecule `CCCCC/C=C\C\C=C/C=C/C=C/[C@@H](SC[C@@H](NC(=O)CC[C@H](N)C(=O)O)C(=O)NCC(=O)O)[C@@H](O)CCCC(=O)O` [LEUKOTRIEN C4] showed an IC50 in data set [1] of 3.3 µM.

With `C[C@@H]1Cc2c(Cl)cc(C(=O)N[C@@H](Cc3ccccc3)C(=O)O)c(O)c2C(=O)O1` [3R14S-OCHRATOXIN A], in data set [2], the Activity result is “substrate [+]”. The IC50 in data set [1] is 58 µM.
